Source: patent US20090253669A1, “Substituted Sulfonamide Compounds” (GRUENENTHAL GmbH, priority 2008, published 2009)

Legend:
[1] = molecular target: T1, human B1R receptor (hB1R) (Homo sapiens, UniProt P46663); test: FLIPR Ca2+ assay on hB1R-transfected CHO K1 cells, antagonistic action; type: cell-based; conditions: CHO-K1, 10 μM test substance; agonist Lys-Des-Arg9-bradykinin 0.5 nM; % of maximum achievable inhibition; read-out: hB1R [10 μM] % inhibition
T1 construct: host or cells: CHO K1 cells
T1 sequence (P46663 1-353): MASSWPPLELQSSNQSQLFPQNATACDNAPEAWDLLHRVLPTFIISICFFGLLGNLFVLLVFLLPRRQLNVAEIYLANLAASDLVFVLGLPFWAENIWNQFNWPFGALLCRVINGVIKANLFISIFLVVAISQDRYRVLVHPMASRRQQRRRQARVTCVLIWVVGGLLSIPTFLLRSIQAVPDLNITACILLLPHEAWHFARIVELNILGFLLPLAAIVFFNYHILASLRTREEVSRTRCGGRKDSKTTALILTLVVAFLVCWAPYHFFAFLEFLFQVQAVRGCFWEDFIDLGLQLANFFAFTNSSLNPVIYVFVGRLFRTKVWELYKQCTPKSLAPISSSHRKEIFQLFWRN

[2] = molecular target: T2, B1R receptor of the rat (rB1R) (Rattus norvegicus, UniProt P97583); test: FLIPR Ca2+ assay on rB1R-transfected CHO K1 cells, antagonistic action; type: cell-based; conditions: CHO-K1, 10 μM test substance; agonist Des-Arg9-bradykinin 100 nM; % of maximum achievable inhibition; read-out: rB1R [10 μM] % inhibition
T2 construct: host or cells: CHO K1 cells
T2 sequence (P97583 1-337): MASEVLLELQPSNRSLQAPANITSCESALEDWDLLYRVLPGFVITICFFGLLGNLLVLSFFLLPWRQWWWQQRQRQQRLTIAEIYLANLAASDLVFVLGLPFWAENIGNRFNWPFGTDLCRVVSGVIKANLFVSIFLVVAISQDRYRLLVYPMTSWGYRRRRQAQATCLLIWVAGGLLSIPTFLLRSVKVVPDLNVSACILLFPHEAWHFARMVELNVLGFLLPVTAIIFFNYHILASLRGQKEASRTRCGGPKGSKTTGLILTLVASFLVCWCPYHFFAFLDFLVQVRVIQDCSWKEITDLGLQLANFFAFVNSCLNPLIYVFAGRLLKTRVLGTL

SMILES | inhibition at 10 µM [1] | inhibition at 10 µM [2]
CN(C)C1(CCc2ccccc2)CCC(NC(=O)CC2c3ccccc3CCN2S(=O)(=O)c2ccc(Cl)c(Cl)c2)CC1 (centres unmarked) [Compound 1, 2-(2-(3,4-dichlorophenylsulfonyl)-1,2,3,4-tetrahydroisoquinolin-1-yl)-N-(4-(dimethylamino)-4-phenethylcyclohexyl)acetamide] | 96% | 105%
COc1cc(C)c(S(=O)(=O)N2CCC(OCC(=O)NC3CCC(CCc4ccccc4)(N(C)C)CC3)C2)c(C)c1 (centres unmarked) [Compound 5, N-(4-(dimethylamino)-4-phenethylcyclohexyl)-2-(1-(4-methoxy-2,6-dimethylphenylsulfonyl)pyrrolidin-3-yloxy)acetamide] | 104% | 100%
COc1cc(C)c(S(=O)(=O)N(C)CCOCC(=O)NC2CCC(c3cccc(F)c3)(N(C)C)CC2)c(C)c1 (centres unmarked) [Compound 6, N-(4-(dimethylamino)-4-(3-fluorophenyl)cyclohexyl)-2-(2-(4-methoxy-N,2,6-trimethylphenylsulfonamido)ethoxy)acetamide] | 100% | 100%
COc1cc(C)c(S(=O)(=O)N(C)CCOCC(=O)NC2CCC(CCc3ccccc3)(N(C)C)CC2)c(C)c1 (centres unmarked) [Compound 7, N-(4-(dimethylamino)-4-phenethylcyclohexyl)-2-(2-(4-methoxy-N,2,6-trimethylphenylsulfonamido)ethoxy)acetamide] | 103% | 100%
COc1cc(C)c(S(=O)(=O)N(C)CCOCC(=O)NC2CCC(Cc3ccc(F)cc3)(N(C)C)CC2)c(C)c1 (centres unmarked) [Compound 9, N-(4-(dimethylamino)-4-(4-fluorobenzyl)cyclohexyl)-2-(2-(4-methoxy-N,2,6-trimethylphenylsulfonamido)ethoxy)acetamide] | 104% | 95%
COc1cc(C)c(S(=O)(=O)N(C)CCOCC(=O)NC2CCC(Cc3ccccc3C)(N(C)C)CC2)c(C)c1 (centres unmarked) [Compound 10, N-(4-(dimethylamino)-4-(2-methylbenzyl)cyclohexyl)-2-(2-(4-methoxy-N,2,6-trimethylphenylsulfonamido)ethoxy)acetamide] | 103% | 95%
COc1cc(C)c(S(=O)(=O)N(C)CCOCC(=O)NC2CCC(c3ccccc3)(N3CCCCC3)CC2)c(C)c1 (centres unmarked) [Compound 11, 2-(2-(4-methoxy-N,2,6-trimethylphenylsulfonamido)ethoxy)-N-(4-phenyl-4-(piperidin-1-yl)cyclohexyl)acetamide] | 100% | 90%
Cc1ccccc1CC1(N(C)C)CCC(NC(=O)CC2c3ccccc3CCN2S(=O)(=O)c2ccc(Cl)c(Cl)c2)CC1 (centres unmarked) [Compound 12, 2-(2-(3,4-dichlorophenylsulfonyl)-1,2,3,4-tetrahydroisoquinolin-1-yl)-N-(4-(dimethylamino)-4-(2-methylbenzyl)cyclohexyl)acetamide] | 77% | 88%
COc1cc(C)c(S(=O)(=O)N2CCC(OCC(=O)NC3CCC(Cc4ccccc4C)(N(C)C)CC3)C2)c(C)c1 (centres unmarked) [Compound 14, N-(4-(dimethylamino)-4-(2-methylbenzyl)cyclohexyl)-2-(1-(4-methoxy-2,6-dimethylphenylsulfonyl)pyrrolidin-3-yloxy)acetamide] | 89% | 82%
O=C(CC1c2ccccc2CCN1S(=O)(=O)c1ccc(Cl)c(Cl)c1)NC1CCC(Cc2ccccc2)(N2CCCCC2)CC1 (centres unmarked) [Compound 15, N-(4-benzyl-4-(piperidin-1-yl)cyclohexyl)-2-(2-(3,4-dichlorophenylsulfonyl)-1,2,3,4-tetrahydroisoquinolin-1-yl)acetamide] | 55% | 82%
O=C(CC1c2ccccc2CCN1S(=O)(=O)c1ccc(Cl)c(Cl)c1)NC1CCC(Cc2ccccc2)(N2CCCCCC2)CC1 (centres unmarked) [Compound 16, N-(4-(azepan-1-yl)-4-benzylcyclohexyl)-2-(2-(3,4-dichlorophenylsulfonyl)-1,2,3,4-tetrahydroisoquinolin-1-yl)acetamide] | 91% | 80%
COc1cc(C)c(S(=O)(=O)N(C)CCOCC(=O)NC2CCC(Cc3ccccc3)(N3CCCCC3)CC2)c(C)c1 (centres unmarked) [Compound 17, N-(4-benzyl-4-(piperidin-1-yl)cyclohexyl)-2-(2-(4-methoxy-N,2,6-trimethylphenylsulfonamido)ethoxy)acetamide] | 86% | 75%
COc1cc(C)c(S(=O)(=O)N2CCC(OCC(=O)NC3CCC(Cc4ccccc4)(N4CCCCC4)CC3)C2)c(C)c1 (centres unmarked) [Compound 18, N-(4-benzyl-4-(piperidin-1-yl)cyclohexyl)-2-(1-(4-methoxy-2,6-dimethylphenylsulfonyl)pyrrolidin-3-yloxy)acetamide] | 68% | 74%
COc1ccc(S(=O)(=O)N2CCCCC2CCOCC(=O)NC2CCC(c3ccccc3)(N(C)C)CC2)cc1 (centres unmarked) [Compound 19, N-(4-(dimethylamino)-4-phenylcyclohexyl)-2-(2-(1-(4-methoxyphenylsulfonyl)piperidin-2-yl)ethoxy)acetamide] | 51% | 73%
COc1cc(C)c(S(=O)(=O)N(C)CCOCC(=O)NC2CCC(Cc3ccccc3)(N3CCCCCC3)CC2)c(C)c1 (centres unmarked) [Compound 20, N-(4-(azepan-1-yl)-4-benzylcyclohexyl)-2-(2-(4-methoxy-N,2,6-trimethylphenylsulfonamido)ethoxy)acetamide] | 91% | 69%
CN(C)C1(c2cccc(F)c2)CCC(NC(=O)COCCN(C)S(=O)(=O)c2ccc(Cl)cc2Cl)CC1 (centres unmarked) [Compound 21, 2-(2-(2,4-dichloro-N-methylphenylsulfonamido)ethoxy)-N-(4-(dimethylamino)-4-(3-fluorophenyl)cyclohexyl)acetamide] | 29% | 67%
COc1cc(C)c(S(=O)(=O)N(C)CCOCC(=O)NC2CCC(CCc3ccccc3)(N(C)C)CC2)c(C)c1C (centres unmarked) [Compound 24, N-(4-(dimethylamino)-4-phenethylcyclohexyl)-2-(2-(4-methoxy-N,2,3,6-tetramethylphenylsulfonamido)ethoxy)acetamide] | 97% | 65%
CN(C)C1(c2ccccc2)CCC(NC(=O)CC2c3ccccc3CCN2S(=O)(=O)c2ccc(Cl)c(Cl)c2)CC1 (centres unmarked) [Compound 26, 2-(2-(3,4-dichlorophenylsulfonyl)-1,2,3,4-tetrahydroisoquinolin-1-yl)-N-(4-(dimethylamino)-4-phenylcyclohexyl)acetamide] | 84% | 56%
COc1cc(C)c(S(=O)(=O)N2CCC(OCC(=O)NC3CCC(c4ccccc4)(N4CCCCC4)CC3)C2)c(C)c1 (centres unmarked) [Compound 27, 2-(1-(4-methoxy-2,6-dimethylphenylsulfonyl)pyrrolidin-3-yloxy)-N-(4-phenyl-4-(piperidin-1-yl)cyclohexyl)acetamide] | 69% | 51%
COc1cc(C)c(S(=O)(=O)N(C)CCOCC(=O)NC2CCC(c3ccccc3)(N3CCCCC3)CC2)c(C)c1C (centres unmarked) [Compound 28, 2-(2-(4-methoxy-N,2,3,6-tetramethylphenylsulfonamido)ethoxy)-N-(4-phenyl-4-(piperidin-1-yl)cyclohexyl)acetamide] | 60% | 48%
COc1cc(C)c(S(=O)(=O)N(CCOCC(=O)N2CCC(c3cccc(F)c3)(N3CCN(C)CC3)CC2)Cc2ccccc2)c(C)c1 [Compound 218, N-Benzyl-N-(2-(2-(4-(3-fluorophenyl)-4-(4-methylpiperazin-1-yl)piperidin-1-yl)-2-oxoethoxy)ethyl)-4-methoxy-2,6-dimethylbenzenesulfonamide] | – | 101%
COc1cc(C)c(S(=O)(=O)N(CCOCC(=O)N2CCC(c3cccc(F)c3)(N3CCN(C)CC3)CC2)c2ccccc2)c(C)c1 [Compound 219, N-(2-(2-(4-(3-Fluorophenyl)-4-(4-methylpiperazin-1-yl)piperidin-1-yl)-2-oxoethoxy)ethyl)-4-methoxy-2,6-dimethyl-N-phenylbenzenesulfonamide] | – | 61%
COc1cc(C)c(S(=O)(=O)N2c3ccccc3CCC2COCC(=O)N2CCC(c3cccc(F)c3)(N3CCN(C)CC3)CC2)c(C)c1 (centres unmarked) [Compound 220, 1-(4-(3-Fluorophenyl)-4-(4-methylpiperazin-1-yl)piperidin-1-yl)-2-((1-(4-methoxy-2,6-dimethylphenylsulfonyl)-1,2,3,4-tetrahydroquinolin-2-yl)methoxy)ethanone] | – | 97%
COc1cc(C)c(S(=O)(=O)N(C)CCOCC(=O)N2CCC(c3cccc(F)c3)(N3CCN(C)CC3)CC2)c(C)c1C [Compound 224, N-(2-(2-(4-(3-Fluorophenyl)-4-(4-methylpiperazin-1-yl)piperidin-1-yl)-2-oxoethoxy)ethyl)-4-methoxy-N,2,3,6-tetramethylbenzenesulfonamide] | – | 100%
